From PMC5295395, “Inhibition of PlexA1-mediated brain tumor growth and tumor-associated angiogenesis using a transmembrane domain targeting peptide” (Oncotarget, 2016)

How the values were obtained:
Format in all cases: cell-based, human
[1] = system: NRP1/PlexA1 complexes; test: in situ proximity ligation assay (Duo-link), NRP1/PlexA1 complexes in U373MG cells; details: U373MG cells, MTP-PlexA1 10^−7 M, vs vehicle
Experimental: “Zip sequence” is the positive control of dimerization and “Empty” is the negative control of this bacterial system. (C, D) SPR assay (Biacore) to quantify MTP-PlexA1 interactions with PLexA1, NRP1 and VEGFR2 TMDs. (E) Proximity ligation assay showing that MTP-PlexA1 (10^−7 M) decreases the number of PLexA1-NRP1 interactions (green dots) in U373MG cells (scale bar = 20 μm).
Additional specificity controls were performed using a mutated version of MTP-PlexA1 (in which 3 glycines of the GxxxGxxxG motif were replaced by 3 valines or MTP-Neu, an anti-breast cancer peptide known to not interact with PlexA1) as described in Supplementary Figure S2. […] Similar results were obtained when cells were exposed to VEGF (39.4% NRP1 and 35.4% PlexA4, Figure 4B).
Supplementary Figure S2: Specificity controls were performed using a mutated version of MTP-PlexA1 […]
LVIVAVLIAYKRK). Such mutations have been previously shown to be sufficient to lose activity of NRP1 antagonist membrane domain targeting peptide (Roth et al., 2008 Mol Biol Cell). We also used MTP-Neu, a transmembrane domain targeting peptide known to […]
M, a concentration previously shown to produce maximal antagonist activity of the peptide. Additionally, we also repeated the in vitro angiogenic assay on matrigel using HUVEC cells. […]
to MTP-PlexA1. These experiments confirmed the specificity of MTP-PlexA1.
(1 picture or pasted object on this page, not shown here)

[2] = system: NRP1-PlexA1 complex; test: co-immunoprecipitation of NRP1 with PlexA1 in U373MG cells; details: 10^−7 M peptide 1 h
Experimental: (C) Rac-1 activation assay in resting condition and after Sema3A-induced Rac-1 activation in U373 MG cells. (D) Western blot analysis of phosphorylated Akt, total Akt and tubulin in U373MG cells treated with the vehicle (LDS 72 μM), Sema3A (100 ng/ml) or Sema3A + MTP-PlexA1 (10^−7 M). The lower panel is showing the quantification of the p-Akt/Akt ratio in the different conditions. (E) MTP-PlexA1 decreases VEGFR-2 phosphorylation induced by VEGF (100 ng/ml) in HUVEC cells. […]
in 20 mM sodium acetate (pH 4.5) at a flow rate of 5 μl/ min 10–7 M of MTP-PlexA1 or Vehicle (LDS, 72 µM) during until desired surface densities, measured in response 1 h. Stimulation was done with 100ng/ml Semaphorin 3A units, were reached. […] First antibodies (Rabbit anti-phospho-the elution buffer containing detergent removed non- akt, Rabbit anti-akt, Cell Signaling #4060 and #9272 biotinylated peptides rendering the chip ready for analysis respectively) and mouse anti-tubulin α (Cell Signaling with monomeric biot-MTP-PlexA1. Blank surfaces were #2144) were incubated overnight at 4°C (+ anti-NRP1, used for background corrections. Injections of 30 µl anti-PlexA4 Abcam). […] Images of the immuno-blots cells per well in a 6-well plate and serum starved overnight. were acquired and analyzed thanks to the GENE GNOME Before protein extraction, the cells were treated either with apparatus (Syngene Bio Imaging, UK).

[3] = system: VEGFR-2 phosphorylation; test: ELISA of VEGFR-2 phosphorylation in HUVEC cells; details: VEGF 100 ng/ml
Experimental: (C) Rac-1 activation assay in resting condition and after Sema3A-induced Rac-1 activation in U373 MG cells. (D) Western blot analysis of phosphorylated Akt, total Akt and tubulin in U373MG cells treated with the vehicle (LDS 72 μM), Sema3A (100 ng/ml) or Sema3A + MTP-PlexA1 (10^−7 M). The lower panel is showing the quantification of the p-Akt/Akt ratio in the different conditions. (E) MTP-PlexA1 decreases VEGFR-2 phosphorylation induced by VEGF (100 ng/ml) in HUVEC cells.
PlexA1 is a Rho-GTPase activating protein. Consistently, it has been shown that in response to Sema3A, the Rho-GTPase Rac1 is activated and sequestered at the plasma membrane. […] Moreover, it has been shown that Sema3A inhibits Akt phosphorylation through binding of Rnd1 to PlexA1. […] From these experiments we concluded that MTP-PlexA1 is able to antagonize major signaling pathways of PlexA1 receptor.

[4] = system: U118MG-Luc cells; test: MTT proliferation assay, U118MG-Luc; details: 24 h culture

In the case of “TLPAIVGIGGGGGLLLLVIVAVLIAYKRK [MTP-PlexA1, synthetic transmembrane peptide mimicking the TMD of PlexA1]”, the “reduction of NRP1/PlexA1 complexes” value [1] is reported as 29.4%, the “change of NRP1 co-immunoprecipitated with PlexA1, Sema3A-induced” value ([2]; Sema3A 100 ng/ml 30 min) is reported as −24.6% and the “reduction of NRP1 co-immunoprecipitated with PlexA1, VEGF” value ([2]; VEGF 100 ng/ml 10 min) is reported as 39.4%. The “change of VEGF-induced phosphorylation of VEGFR-2” value [3] was −26% and the “proliferation of U118MG-Luc cells” value [4] was “reduced proliferation in a dose dependent manner”.
